Experimental data: article PMC9274004, “Deciphering the Molecular Interaction Between the Adhesion G Protein-Coupled Receptor ADGRV1 and its PDZ-Containing Regulator PDZD7” (Frontiers in Molecular Biosciences, 2022)
Where no end group is shown, it is not given here.

Tests used:
PDZD7 PDZ1 (81-167) = molecular target: T1, PDZD7 PDZ1 (81-167) (Mus musculus, UniProt E9Q9W7); assay: NMR titration of PDZ1 with ADGRV1 ligands; type: binding, murine; conditions: NMR titration (1H-15N HSQC CSP), Tris HCl pH 7.5 (50 mM), 25°C; SD of Kd over at least ten shifting peaks
T1 construct: (Uniprot entry E9Q9W7-1); PDZ1 (81-167); GST (followed by TEV site) (N, cleaved yes); made in house; host or cells: E. coli BL21 DE3
Description: All experiments were recorded at 25°C on a Bruker 800 MHz spectrometer equipped with a triple resonance ^1H{^13C/^15N} cryoprobe. The ^1H, ^15 N and ^13C backbone resonances assignment of PDZ1ext was carried out using 3D HNCA, HNCACB, HNCO, HNCOCA experiments (Tris HCl buffer adjusted to pH 6). The 2D ^1H-^15N HSQC spectra used to compare PDZ1, PDZ1ext, PDZ2 and PDZ2ext were recorded in Tris HCl pH 7.5 (50 mM). The 2D ^1H-^15N HSQC spectra used to compare PDZ1ext, PDZ2ext and P1P2 were recorded in Phosphate Buffer pH 6.5 (50 mM). Titration experiments of PDZ1 (WT), PDZ1ext (WT) and PDZ1ext (G103R) against ADGRV1pbm peptide were performed in Tris HCl pH 7.5 (50 mM). Averaged Chemical Shifts Perturbations (CSP) were calculated as: Δδavg = ((Δδ(^1H))^2+(Δδ(^15N)*0.159)^2)^½. […]
We monitored the interaction between PDZD7 constructs and a peptide (ADGRV1pbm) corresponding to the last 13 residues of ADGRV1, encompassing its PBM (sequence VELRRIPIADTHL-COOH; PBM underlined). We measured apparent Kd values of our constructs towards ADGRV1pbm using several biophysical methods (NMR, fluorescence, MicroScale Thermophoresis (MST)) (Table 1; Supplementary Figure S3–S5). […]

PDZD7 N-PDZ1ext = molecular target: T2, PDZD7 N-PDZ1ext (Mus musculus, UniProt E9Q9W7); assay: NMR titration of N-PDZ1ext with ADGRV1 ligands; type: binding, murine; conditions: NMR titration, 25°C; SD over at least ten shifting peaks; read-out: Kd (Peptide)
T2 construct: including the N-terminus of the protein (N-PDZ1ext construct; M1-E192); GST (followed by TEV site) (N, cleaved yes); made in house; host or cells: E. coli BL21 DE3
T2 sequence (E9Q9W7 1-192): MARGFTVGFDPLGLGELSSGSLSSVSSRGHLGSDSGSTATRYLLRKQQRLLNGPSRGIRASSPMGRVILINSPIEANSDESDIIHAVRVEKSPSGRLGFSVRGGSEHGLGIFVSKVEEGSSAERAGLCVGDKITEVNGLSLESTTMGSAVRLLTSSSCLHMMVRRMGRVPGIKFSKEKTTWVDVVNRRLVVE
Description: All experiments were recorded at 25°C on a Bruker 800 MHz spectrometer equipped with a triple resonance ^1H{^13C/^15N} cryoprobe. The ^1H, ^15 N and ^13C backbone resonances assignment of PDZ1ext was carried out using 3D HNCA, HNCACB, HNCO, HNCOCA experiments (Tris HCl buffer adjusted to pH 6). The 2D ^1H-^15N HSQC spectra used to compare PDZ1, PDZ1ext, PDZ2 and PDZ2ext were recorded in Tris HCl pH 7.5 (50 mM). The 2D ^1H-^15N HSQC spectra used to compare PDZ1ext, PDZ2ext and P1P2 were recorded in Phosphate Buffer pH 6.5 (50 mM). Titration experiments of PDZ1 (WT), PDZ1ext (WT) and PDZ1ext (G103R) against ADGRV1pbm peptide were performed in Tris HCl pH 7.5 (50 mM). Averaged Chemical Shifts Perturbations (CSP) were calculated as: Δδavg = ((Δδ(^1H))^2+(Δδ(^15N)*0.159)^2)^½. For the determination of dissociation constants (Kd) of each peptide/PDZ interaction, averaged CSP δavg was plotted as a function of the molar ratio (peptide/PDZ) for several peaks and fitted using nonlinear regression and assuming a simple complex formation model.
The P1P2 tandem of PDZD7 is preceded by 80 residues with no predicted secondary or tertiary structure, but which could contribute to the interaction with ADGRV1. […] We first aimed at identifying potential secondary structures in both PDZD7 N-terminal region and ADGRV1 cytoplasmic domain. To this end, we produced both an extended PDZ1ext construct, including the N-terminus of the protein (N-PDZ1ext construct; M1-E192) and the whole ADGRV1 cytoplasmic domain of 152 residues.
On the overlay of PDZ1ext and N-PDZ1ext HSQC spectra, there is no significant chemical shift changes on PDZ1ext due to the presence of the N-terminal region (CSPs <0.04 ppm). […] We used the entire cytoplasmic domain of ADGRV1 as partner of PDZD7 in NMR and fluorescence titrations experiments. […] Finally, we measured Kd values in the few micromolar range between the tandem P1P2 and the whole cytoplasmic domain and the last 13 residues of ADGRV1 by fluorescence experiments.

**Q.** VELRRIPIADTHL [ADGRV1pbm] was tested. Which Kd (PDZD7 PDZ1 (81-167)) did it give?
**A.** 1310 µM

**Q.** And the Kd (PDZD7 N-PDZ1ext)?
**A.** 270 ± 21 µM
